Test results as given in article PMC7821884, “BRAF inhibition protects against hearing loss in mice” (Science Advances, 2020).

Columns and labels:
[1] = tested on: P3-P4 FVB mouse cochlear explants; design: method as in PMID 29514916, PMID 9303151; conditions: identical P3 FVB explant model; read-out: IC50, protection from cisplatin in explants; cited from earlier work
[2] = design: method as in PMID 25894725, PMID 26655654; conditions: cited from earlier work
HEI-OC1 cell line = test: Caspase-Glo 3/7 activity screen for protection from cisplatin-induced cell death; format: cell-based, mouse; conditions: HEI-OC1, 50 μM cisplatin, 22 hours
Description: An unbiased screen for compounds protective against cisplatin ototoxicity ([12], [13]) was conducted using the immortalized inner ear cell line HEI-OC1 derived from mouse cochlea ([14]). One hundred sixty-two unique small-molecule kinase-specific inhibitors were screened in dose-response mode for protection from 50 μM cisplatin. A caspase-3/7 activity assay was selected to measure apoptosis using a protocol that quantifies a luminescent product derived from the cleavage of caspase-3/7 substrate (Caspase-Glo 3/7 reagent). One hundred percent luminescence was defined by cells treated with cisplatin alone, and 0% was defined by untreated cells (Fig. 1A, fig. S1, table S1, and dataset in the Supplementary Materials).
In these screens, caspase-3 cleavage was chosen as the end point indicating cisplatin-induced apoptosis, because it allowed the inhibition of cell death to be monitored at the level of any molecular target upstream of caspase-3 cleavage in the HEI-OC1 cell line. Cells were plated at a previously optimized concentration of 1600 cells per well in medium without γ-interferon to limit proliferation and tested against 50 μM cisplatin based on a previous dose–response curve. Tested compounds were dissolved in DMSO before addition to medium with a final DMSO concentration of <0.5%. The screens are described in detail in our previous publications ([12], [13]). […]

[3] = tested on: P3-P4 FVB mouse cochlear explants; conditions: 150 μM, 24 hours
Description: Mouse cochlear explants are widely recognized as an alternative to in vivo cochlear models and pragmatic for focused drug screening ([37]). […] Medium-alone, drug-alone, and cisplatin-alone treatments were used as controls.
P3-P4 FVB mouse cochleae were dissected and maintained in culture on filter inserts in six-well plates with 1 ml of growth medium DMEM (12430-054,Gibco Life Technologies), with 1% FBS (16000-044, Gibco Life Technologies), B-27 supplement (200 μl/500 ml; 17504-44, Gibco Life Technologies), N-2 supplement (100 μl/500 ml; 17502-048, Gibco Life Technologies), and ampicillin (50 μg/ml; A5354-10ML, Sigma-Aldrich) both inside and outside the filter (Millicell, PICM03050, Millipore). […] Cochleae were imaged by confocal microscopy, two 160-μm regions from middle turns were photographed, and the number of intact HCs was counted. Two to five independent cochleae were tested for each experimental condition.

P42 FVB mice = test: Cisplatin-induced hearing loss in adult mice (ABR, OHC counts, pERK); conditions: cisplatin 30 mg/kg i.p., alone or combined with dabrafenib
Description: As described in Fig. 4A, baseline auditory brainstem response (ABR) thresholds for P42 FVB mice were established 1 week before experimental procedures. […] Animals were allowed 21 days after cisplatin injection to recover, and final ABR thresholds were recorded.
Ten milligrams of cisplatin (479306, Sigma-Aldrich) powder was dissolved in 10 ml of sterile saline (0.9% NaCl) at 37°C for 40 to 60 min. Cisplatin was administered to FVB mice at 30 mg/kg via intraperitoneal injection. One day before cisplatin injection, mice received 1 ml of saline by subcutaneous injection. To ameliorate dehydration after cisplatin injection, 1 ml of warm saline was injected twice per day for at least 7 days or until body weight started to recover. The cages of cisplatin-treated mice were placed on the heating pad for at least 7 days or until body weight began to recover. Fresh mush food was daily given for at least 7 days.
Compounds were dissolved in a mixture of 10% DMSO, 5% Tween 80 (P1754, Sigma-Aldrich), 40% PEG-E-300 (91462-1KG, Sigma-Aldrich), and 45% 0.9% saline.
ABR in mice was measured for left ears as described previously with minor modifications ([13], [34]). In brief, ABR waveforms were recorded in a sound booth (Industrial Acoustic Company) by using subdermal needles positioned in the skull, below the pinna, and at the base of the tail, and the responses were fed into a low-impedance Medusa digital biological amplifier system (RA4L; TDT; 20-dB gain). At each frequency, the stimulus intensity was reduced from 90 to 0 dB in 10-dB steps to determine the threshold decibel SPL when the electrical response was just above the noise floor. ABR waveforms were averaged in response to 500 tone bursts. The recorded signals were filtered by a band-pass filter from 300 Hz to 3 kHz. Pretreatment ABR recordings of adult FVB mice (aged 6 weeks) were acquired 1 week before all treatments, and posttreatment ABR measurements were recorded 21 days after cisplatin treatment or 14 days after noise exposure. ABR threshold was determined by the presence of any of three or more of the five waveform peaks. […] All thresholds and shifts were determined independently by two experimenters for each mouse. Individual ABR wave 1 amplitudes were measured as the difference between the positive peak and the following negative trough.
Cochleae from adult mice were prepared and examined as described previously ([85], [86]). All images were acquired with a confocal microscope (LSM 700 or 710, Zeiss). Samples were stained with phalloidin (A12379 or A12380, Invitrogen) or with antibodies for other markers. The following primary antibodies were used: anti–myosin VI (1:400; 25-6791; Proteus Bioscience), anti–myosin VIIa ([…];138-1-s, Developmental Studies Hybridoma Bank), anti-Tuj1 (1:250; 801201, BioLegend), anti-pERK (1:400; 9101S, Cell Signaling Technology), or anti-Ctbp2 (1:500; 612044, BD Transduction). Anti-rabbit Alexa Fluor 488 (1:400; A11034) and anti-mouse Alexa Fluor 647 (1:400; A31571) secondary antibodies were purchased from Invitrogen. ProLong gold antifade reagent with 4′,6-diamidino-2-phenylindole (P36941, Invitrogen) was used to counterstain nuclei.

[4] = design: method as in PMID 25665007, PMID 25058905, PMID 23044998; conditions: cisplatin chemotherapy; cited from earlier work
[5] = cited from earlier work

## O=c1c2ccccc2[se]n1-c1ccccc1 [ebselen]
[1]
  IC50: 10.8 µM

## C[C@@H]1C[C@H]2[C@@H]3CCC4=CC(=O)C=C[C@]4(C)[C@@]3(F)[C@@H](O)C[C@]2(C)[C@@]1(O)C(=O)CO [dexamethasone]
[1]
  IC50: > 0.25 µM
[2]
  effectiveness in treating noise ototoxicity: only partially effective

## Cc1ccc(C(=O)Cn2c3c(sc2=N)CCCC3)cc1 [Pifithrin-α]
HEI-OC1 cell line
  IC50: 7.7 µM

## CSCC[C@@H](N)C(=O)O [D-methionine]
[1]
  IC50: 98.4 µM

## N.N.[Cl][Pt][Cl] [cisplatin]
[3]
  OHCs that died with cisplatin: ~40%
P42 FVB mice
  survival rate of mice: 50%
[4]
  patients with cancer with hearing loss: 40 to 60%

## O=S([O-])([O-])=S.[Na+].[Na+] [STS, sodium thiosulfate]
[5]; children with localized standard-risk hepatoblastoma, 6 hours after cisplatin chemotherapy
  lowering of incidence of hearing loss: 48%
[5]
  survival of treated patients with disseminated tumors: lowered survival rate

## O=C1Cc2c([nH]c3ccc(Br)cc23)-c2ccccc2N1 [kenpaullone]
[1]
  IC50: 0.2 µM
